Measured values reported in ChEMBL document CHEMBL5321199, “Development of a series of quinazoline-2,5-diamine derivatives as potent hematopoietic progenitor kinase 1 (HPK1) inhibitors” (Eur J Med Chem, 2023).
Activity calls are given as the source filed them. The rule behind the calls is not given here.

Columns and labels:
[1] = target: T1, Mitogen-activated protein kinase kinase kinase kinase 1 (Homo sapiens, UniProt Q92918); test: Inhibition of HPK1 (unknown origin) at 100 nM using myelin basic protein as substrate incubated for 60 mins in presence of ATP by ADP-Glo kinase assay relative to control
Target sequence in this assay (Q92918 whole entry, looked up): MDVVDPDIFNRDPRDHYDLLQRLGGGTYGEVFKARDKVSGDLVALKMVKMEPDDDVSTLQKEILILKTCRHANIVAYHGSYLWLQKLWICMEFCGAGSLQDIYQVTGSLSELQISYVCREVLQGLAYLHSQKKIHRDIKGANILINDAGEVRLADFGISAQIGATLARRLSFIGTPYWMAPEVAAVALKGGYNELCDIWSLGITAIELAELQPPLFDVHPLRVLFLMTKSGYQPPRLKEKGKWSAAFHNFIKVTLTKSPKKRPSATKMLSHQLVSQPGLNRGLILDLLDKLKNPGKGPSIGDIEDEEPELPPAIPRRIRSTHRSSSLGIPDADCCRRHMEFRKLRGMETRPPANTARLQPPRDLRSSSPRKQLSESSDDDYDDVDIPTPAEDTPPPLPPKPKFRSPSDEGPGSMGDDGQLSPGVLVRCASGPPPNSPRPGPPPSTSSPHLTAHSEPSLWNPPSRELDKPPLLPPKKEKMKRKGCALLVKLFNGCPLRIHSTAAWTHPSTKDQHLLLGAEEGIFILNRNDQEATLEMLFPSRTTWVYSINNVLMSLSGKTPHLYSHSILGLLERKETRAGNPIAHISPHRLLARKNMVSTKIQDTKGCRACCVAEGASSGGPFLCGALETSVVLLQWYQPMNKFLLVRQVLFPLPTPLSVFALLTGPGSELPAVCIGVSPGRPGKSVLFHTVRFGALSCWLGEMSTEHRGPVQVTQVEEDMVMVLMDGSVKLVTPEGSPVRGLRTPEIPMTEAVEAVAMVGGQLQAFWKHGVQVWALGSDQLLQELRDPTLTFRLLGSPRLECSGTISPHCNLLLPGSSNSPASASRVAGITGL

[2] = target: T1, Mitogen-activated protein kinase kinase kinase kinase 1; test: Inhibition of HPK1 (unknown origin) at 1 uM using myelin basic protein as substrate incubated for 60 mins in presence of ATP by ADP-Glo kinase assay relative to control
Target sequence in this assay (Q92918 whole entry, looked up): as above

[3] = target: T1, Mitogen-activated protein kinase kinase kinase kinase 1; test: Inhibition of HPK1 (unknown origin) using myelin basic protein as substrate incubated for 60 mins in presence of ATP by ADP-Glo kinase assay
Target sequence in this assay (Q92918 whole entry): as the sequence (Q92918 whole entry, looked up) above

[4] = target: T1, Mitogen-activated protein kinase kinase kinase kinase 1; test: Inhibition of HPK1 in human Jurkat E6.1 cells assessed as reduction in SLP76 phosphorylation at Serine 376 residue preincubated with compound for 2 hrs followed by stimulation with alphaCD3/CD28 measured after 10 mins by Western blotting analysis; format: cell-based
Target sequence in this assay (Q92918 whole entry): as the sequence (Q92918 whole entry, looked up) above

[5] = target: T1, Mitogen-activated protein kinase kinase kinase kinase 1; test: Inhibition of HPK1 in human Jurkat E6.1 cells assessed as reduction in SLP76 phosphorylation at Serine 376 residue at 33 nM preincubated with compound for 2 hrs followed by stimulation with alphaCD3/CD28 measured after 10 mins by Western blotting analysis; format: cell-based; settings: time 130.0 min
Target sequence in this assay (Q92918 whole entry, looked up): as above

[6] = target: T1, Mitogen-activated protein kinase kinase kinase kinase 1; test: Inhibition of HPK1 in human PBMC cells assessed as increase in IL-2 release at above 1 uM preincubated with compound for 1 hr followed by stimulation with alphaCD3/CD28 measured after 48 hrs by ELISA assay; format: cell-based; settings: time 49.0 hrs
Target sequence in this assay (Q92918 whole entry, looked up): as above

[7] = target: T1, Mitogen-activated protein kinase kinase kinase kinase 1; test: Inhibition of N-terminal DYKDDDDK tagged HPK1 CD (1 to 346 residues) (unknown origin) incubated for 1 hr in presence of ATP by TR-FRET assay
Target sequence in this assay (Q92918 whole entry): as the sequence (Q92918 whole entry, looked up) above

[8] = target: T1, Mitogen-activated protein kinase kinase kinase kinase 1; test: Inhibition of HPK1 in human PBMC cells assessed as reduction in SLP76 phosphorylation at Ser376 residue preincubated with compound for 1 hr followed by stimulation with CD3/CD28-dynabead by ELISA assay; format: cell-based
Target sequence in this assay (Q92918 whole entry): as the sequence (Q92918 whole entry, looked up) above

[9] = target: T1, Mitogen-activated protein kinase kinase kinase kinase 1; test: Inhibition of HPK1 in human PBMC cells assessed as increase in IL-2 release preincubated with compound for 1 hr followed by stimulation with CD3/CD28-dynabead measured after 16 to 18 hrs by ELISA assay; format: cell-based
Target sequence in this assay (Q92918 whole entry): as the sequence (Q92918 whole entry, looked up) above

[10] = target: T1, Mitogen-activated protein kinase kinase kinase kinase 1; test: Inhibition of HPK1 in human Jurkat E6.1 cells assessed as reduction in SLP76 phosphorylation at Serine 376 residue at 0.4 to 100 nM preincubated with compound for 2 hrs followed by stimulation with alphaCD3/CD28 measured after 10 mins by Western blotting analysis; format: cell-based; settings: dose 0.4-100 nM, time 130.0 min
Target sequence in this assay (Q92918 whole entry, looked up): as above

[11] = target: T1, Mitogen-activated protein kinase kinase kinase kinase 1; test: Inhibition of HPK1 in human Jurkat E6.1 cells assessed as phosphorylation of SLP76 at serine 376 residue incubated for 4 hrs by HTRF assay; format: cell-based
Target sequence in this assay (Q92918 whole entry): as the sequence (Q92918 whole entry, looked up) above

| inhibition [1] [%] | inhibition [2] [%] | IC50 [3] [nM] | Compound | further results |
| --- | --- | --- | --- | --- |
| 36.2 | 85.9 | – | Cc1ccc(-c2cc(N)c3cnc(Nc4cnn(C5CC5)c4)nc3c2)cn1 | – |
| – | – | 6.2 | Cc1c(-c2cc(N)c3cnc(Nc4ccccc4)nc3c2)cnc2c1NCCO2 | – |
| – | – | 35.7 | Cc1c(-c2cc(N)c3cnc(Nc4cnn(C)c4C)nc3c2)cnc2c1NCCO2 | – |
| – | – | 5.2 | Cc1c(-c2cc(N)c3cnc(Nc4ccc5c(c4)CN(C(C)C)CC5)nc3c2)cnc2c1NCCO2 | – |
| – | – | 12 | CCn1cc(Nc2ncc3c(N)cc(-c4cnc5c(c4C)NCCO5)cc3n2)cn1 | – |
| – | – | 6.4 | Cc1c(-c2cc(N)c3cnc(Nc4cnn(C(C)C)c4)nc3c2)cnc2c1NCCO2 | – |
| – | – | 4.3 | Cc1c(-c2cc(N)c3cnc(Nc4ccc5c(c4)CCNC5)nc3c2)cnc2c1NCCO2 | – |
| 96.3 | – | 5.7 | Cc1c(-c2cc(N)c3cnc(Nc4cnn(C5CC5)c4)nc3c2)cnc2c1NCCO2 | IC50 [4]: 23.1 nM; inhibition [5]: Active; inhibition [6]: Active |
| -3.3 | 24.1 | – | Nc1cc(-c2ccncc2)cc2nc(Nc3cnn(C4CC4)c3)ncc12 | – |
| 92.5 | 99.7 | – | CC1(C)OC(=O)c2ccc(Nc3ncc(-c4nnco4)c(N[C@H](CO)c4ccccc4)n3)cc21 | – |
| 68.6 | 95.8 | 50.5 | Cn1cc(-c2cc(N)c3cnc(Nc4cnn(C5CC5)c4)nc3c2)cn1 | – |
| – | – | 5.6 | CNCCc1ccc(Nc2ncc3c(N)cc(-c4cnc5c(c4C)NCCO5)cc3n2)cc1 | – |
| 7.5 | – | – | Cc1nn(C)c(C)c1Nc1ncc2c(N)cc(-c3cnc4c(c3C)NCCO4)cc2n1 | – |
| 1.6 | 33.6 | – | Nc1cc(-c2ccccc2)cc2nc(Nc3cnn(C4CC4)c3)ncc12 | – |
| – | – | 95.7 | Cc1c(-c2cc(N)c3cnc(Nc4ccccn4)nc3c2)cnc2c1NCCO2 | – |
| 80 | – | 33.2 | Nc1cncc(-c2cc(N)c3cnc(Nc4cnn(C5CC5)c4)nc3c2)c1 | – |
| 53.6 | 90.9 | 61.1 | Cc1c(-c2cc(N)c3cnc(Nc4cnn(C5CC5)c4)nc3c2)cnn1C | – |
| – | – | 5.5 | Cc1c(-c2cc(N)c3cnc(Nc4cccnc4)nc3c2)cnc2c1NCCO2 | – |
| 97.9 | – | 3.1 | Cc1c(-c2cc3cc(NC(=O)C4CC4)ncc3c(N)c2F)cnc2c1NCCO2 | IC50 [7]: 0.067 nM; IC50 [8]: 84 nM; EC50 [9]: 16 nM; IC50 [4]: 6.1 nM; inhibition [10]: Active |
| – | – | 4.3 | CNCc1ccc(Nc2ncc3c(N)cc(-c4cnc5c(c4C)NCCO5)cc3n2)cc1 | – |
| 42.7 | 87.6 | – | Cc1cncc(-c2cc(N)c3cnc(Nc4cnn(C5CC5)c4)nc3c2)c1 | – |
| 56.2 | 86 | 61.4 | Nc1cc(-c2cccnc2)cc2nc(Nc3cnn(C4CC4)c3)ncc12 | – |

| inhibition [1] [%] | inhibition [2] [%] | IC50 [3] [nM] | Compound | further results |
| --- | --- | --- | --- | --- |
| – | – | 4.8 | Cc1c(-c2cc(N)c3cnc(Nc4ccc5c(c4)CCN(C)C5)nc3c2)cnc2c1NCCO2 | – |
| – | – | 12.7 | Cc1c(-c2cc(N)c3cnc(Nc4ccn(C)n4)nc3c2)cnc2c1NCCO2 | – |
| – | – | – | CN1CCC(c2ncc(-c3cnc(N)c(OCc4cccc(C#CC(C)(C)O)c4)c3)s2)CC1 | IC50 [11]: < 100 nM |
| – | – | 5 | CNCc1cccc(Nc2ncc3c(N)cc(-c4cnc5c(c4C)NCCO5)cc3n2)c1 | – |
| – | – | 3 | Cc1c(-c2cc(N)c3cnc(Nc4ccc5c(c4)CNCC5)nc3c2)cnc2c1NCCO2 | – |
| -5.1 | 25.8 | – | Cc1nn(C)cc1-c1cc(N)c2cnc(Nc3cnn(C4CC4)c3)nc2c1 | – |
| 23.2 | 49.2 | – | Cn1nccc1-c1cc(N)c2cnc(Nc3cnn(C4CC4)c3)nc2c1 | – |
| 93 | – | 10.4 | Cc1c(N)cncc1-c1cc(N)c2cnc(Nc3cnn(C4CC4)c3)nc2c1 | – |
| 36.3 | 85.5 | – | N#Cc1ccncc1-c1cc(N)c2cnc(Nc3cnn(C4CC4)c3)nc2c1 | – |
| – | – | 15.5 | CCn1ccc(Nc2ncc3c(N)cc(-c4cnc5c(c4C)NCCO5)cc3n2)n1 | – |
| 87.2 | 98.1 | 17.9 | Cc1ccncc1-c1cc(N)c2cnc(Nc3cnn(C4CC4)c3)nc2c1 | – |
| – | – | 5.7 | Cc1c(-c2cc(N)c3cnc(Nc4ccncc4)nc3c2)cnc2c1NCCO2 | – |
| – | – | 6.9 | CCN1CCc2ccc(Nc3ncc4c(N)cc(-c5cnc6c(c5C)NCCO6)cc4n3)cc2C1 | – |
| – | – | 53 | Cc1c(-c2cc(N)c3cnc(Nc4cc(C)n(C)n4)nc3c2)cnc2c1NCCO2 | – |
| 4.7 | – | – | Cc1c(-c2cc(N)c3cnc(NC(=O)C4CC4)nc3c2)cnc2c1NCCO2 | – |
| – | – | 7.9 | Cc1nn(C)cc1Nc1ncc2c(N)cc(-c3cnc4c(c3C)NCCO4)cc2n1 | – |
| – | – | 7.8 | Cc1c(-c2cc(N)c3cnc(Nc4cnn(C)c4)nc3c2)cnc2c1NCCO2 | – |
| – | – | 6 | CNCCc1cccc(Nc2ncc3c(N)cc(-c4cnc5c(c4C)NCCO5)cc3n2)c1 | – |
| – | – | 7.3 | COc1cc2c(cc1Nc1ncc3c(N)cc(-c4cnc5c(c4C)NCCO5)cc3n1)CN(C)CC2 | – |
| 0.1 | 60.6 | – | COc1ncc(-c2cc(N)c3cnc(Nc4cnn(C5CC5)c4)nc3c2)cc1N | – |
| -6.9 | 30.3 | – | Nc1cc(-c2ccccn2)cc2nc(Nc3cnn(C4CC4)c3)ncc12 | – |
